According to ChEMBL document CHEMBL1134687, “Synthesis and structure-activity relationships of naphthamides as dopamine D3 receptor ligands” (J Med Chem, 2001):
pKi: −log10 of the molar value.

Columns and labels:
D(3) dopamine receptor = D(3) dopamine receptor (Rattus norvegicus, UniProt P19020); assay: biochemical
Description: Binding affinity for dopamine receptor D3 expressed in Sf9 cells using [125I]IABN the radioligand.

Sigma 2 receptor [1] = target: Sigma 2 receptor; parameters: species or system Rattus norvegicus, Liver, Membrane
D(2) dopamine receptor = D(2) dopamine receptor (Rattus norvegicus, UniProt P61169); assay: Binding affinity for dopamine receptor D2 long expressed in Sf9 cells using [125I]IABN radioligand.
Chain of D(2) dopamine receptor (P61169 whole entry): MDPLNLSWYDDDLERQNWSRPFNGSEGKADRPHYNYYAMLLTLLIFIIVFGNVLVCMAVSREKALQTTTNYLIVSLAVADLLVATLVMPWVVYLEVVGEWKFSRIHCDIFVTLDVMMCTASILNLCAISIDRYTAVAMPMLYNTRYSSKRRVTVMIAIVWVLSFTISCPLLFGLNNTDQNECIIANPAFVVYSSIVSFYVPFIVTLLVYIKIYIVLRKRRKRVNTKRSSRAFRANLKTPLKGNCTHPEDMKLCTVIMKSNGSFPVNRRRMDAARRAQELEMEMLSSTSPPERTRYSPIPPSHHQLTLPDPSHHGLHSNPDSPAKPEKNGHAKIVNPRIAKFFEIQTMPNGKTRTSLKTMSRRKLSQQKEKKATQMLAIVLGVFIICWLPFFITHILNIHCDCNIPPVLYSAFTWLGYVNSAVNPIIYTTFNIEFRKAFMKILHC

Sigma 2 receptor [2] = assay: Binding affinity for sigma-2 receptor measured on rat liver membranes using [3H]DTG as radioligand in the presence of (+)-pentazocine; parameters: species or system Membrane

Chain of D(3) dopamine receptor (P19020 whole entry): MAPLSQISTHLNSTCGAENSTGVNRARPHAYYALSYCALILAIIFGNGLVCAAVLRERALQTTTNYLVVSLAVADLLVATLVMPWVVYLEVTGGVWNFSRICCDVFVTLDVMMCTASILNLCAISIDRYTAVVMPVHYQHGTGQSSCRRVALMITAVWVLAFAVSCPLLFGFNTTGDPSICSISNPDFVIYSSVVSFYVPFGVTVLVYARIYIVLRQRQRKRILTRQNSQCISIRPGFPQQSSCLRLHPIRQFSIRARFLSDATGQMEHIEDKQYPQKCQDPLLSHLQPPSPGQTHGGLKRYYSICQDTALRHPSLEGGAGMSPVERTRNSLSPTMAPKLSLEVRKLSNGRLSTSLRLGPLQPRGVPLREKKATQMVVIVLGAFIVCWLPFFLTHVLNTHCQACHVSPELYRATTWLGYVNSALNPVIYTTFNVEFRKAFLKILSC

Row | SMILES | pKi (D(3) dopamine receptor) | pKi (Sigma 2 receptor [1]) | pKi (D(2) dopamine receptor) | pKi (Sigma 2 receptor [2])
1 | COc1c(C(=O)N[C@@H]2CCN(C3CCCCCC3)C2)cc(Br)c2ccccc12 | 8.54 | 8.00 | 7.72 | –
2 | COc1c(C(=O)N[C@H]2CCN(C3CCCC3)C2)cc(Br)c2ccccc12 | 8.60 | 7.57 | 7.72 | –
3 | COc1c(C(=O)N[C@@H]2CCN(C3[C@H]4C[C@@H]5C[C@@H](C[C@H]3C5)C4)C2)cc(Br)c2ccccc12 (stereo partly drawn) | 7.89 | 7.67 | – | –
4 | COc1c(C(=O)NC[C@@H]2CCCN2C2CCCC2)cc(Br)c2ccccc12 | – | 7.29 | 7.23 | –
5 | COc1c(C(=O)NC[C@H]2CCCN2C2CCCCC2)cc(Br)c2ccccc12 | 8.49 | 7.60 | 7.24 | –
6 | COc1c(C(=O)NC2CC3CCCC(C2)N3C2CCCCC2)cc(Br)c2ccccc12 (stereo not drawn) | 7.32 | 8.32 | 6.82 | –
7 | COc1c(C(=O)N[C@H]2CCN(C3C4CCCC3CCC4)C2)cc(Br)c2ccccc12 (stereo partly drawn) | 7.92 | 6.86 | 6.88 | –
8 | COc1c(C(=O)NC2CCN(C3CCCCCC3)CC2)cc(Br)c2ccccc12 | 7.24 | 8.59 | 7.64 | –
9 | COc1c(C(=O)NC2CCN(C3CCCC3)CC2)cc(Br)c2ccccc12 | 6.05 | 8.17 | 6.68 | –
10 | COc1c(C(=O)NC[C@@H]2CCCN2C2CCCCC2)cc(Br)c2ccccc12 | 6.48 | 6.83 | 6.35 | –
11 | COc1c(C(=O)NC[C@H]2CCCN2C2CCCC2)cc(Br)c2ccccc12 | – | 7.46 | 6.80 | –
12 | COc1c(C(=O)NC2CC3CCCC(C2)N3Cc2ccccc2)cc(Br)c2ccccc12 (stereo not drawn) | 10.40 | 6.60 | 9.70 | –
13 | COc1c(C(=O)NC[C@H]2CCCN2C2CCCCCC2)cc(Br)c2ccccc12 | 8.62 | – | – | –
14 | COc1c(C(=O)NC[C@H]2CCCN2Cc2ccccc2)cc(Br)c2ccccc12 | 8.85 | 6.68 | 7.94 | –
15 | COc1c(C(=O)NC2CCN(C3C4CCCC3CCC4)CC2)cc(Br)c2ccccc12 (stereo not drawn) | 5.84 | 8.62 | 6.11 | –
16 | COc1c(C(=O)NC2CCN(C3[C@H]4C[C@@H]5C[C@@H](C[C@H]3C5)C4)CC2)cc(Br)c2ccccc12 (stereo partly drawn) | 7.04 | 7.26 | 7.02 | –
17 | COc1c(C(=O)NC2CC3CCCC(C2)N3C2CCCCCC2)cc(Br)c2ccccc12 (stereo not drawn) | 7.39 | 8.10 | 6.82 | –
18 | COc1c(C(=O)NC[C@@H]2CCCN2C2CCC2)cc(Br)c2ccccc12 | – | – | 7.93 | –

Row | SMILES | pKi (D(3) dopamine receptor) | pKi (Sigma 2 receptor [1]) | pKi (D(2) dopamine receptor) | pKi (Sigma 2 receptor [2])
19 | COc1c(C(=O)NC[C@@H]2CCCN2C2C3CCCC2CCC3)cc(Br)c2ccccc12 (stereo partly drawn) | 8.12 | 6.57 | 7.59 | –
20 | COc1c(C(=O)N[C@H]2CCN(C3[C@H]4C[C@@H]5C[C@@H](C[C@H]3C5)C4)C2)cc(Br)c2ccccc12 (stereo partly drawn) | 9.40 | 7.15 | – | –
21 | COc1c(C(=O)N[C@@H]2CCN(C3CCCC3)C2)cc(Br)c2ccccc12 | 7.12 | 7.82 | 6.55 | –
22 | COc1c(C(=O)NC2CCN(C3CCCCC3)CC2)cc(Br)c2ccccc12 | 6.37 | 8.68 | 7.03 | –
23 | COc1c(C(=O)NC[C@@H]2CCCN2Cc2ccccc2)cc(Br)c2ccccc12 | 7.84 | 6.65 | 6.82 | –
24 | COc1c(C(=O)NC[C@H]2CCCN2C2CCC2)cc(Br)c2ccccc12 | – | – | 6.56 | –
25 | COc1c(C(=O)NC[C@H]2CCCN2C2[C@H]3C[C@@H]4C[C@@H](C[C@H]2C4)C3)cc(Br)c2ccccc12 (stereo partly drawn) | 8.59 | 6.50 | – | –
26 | COc1c(C(=O)N[C@@H]2CCN(Cc3ccccc3)C2)cc(Br)c2ccccc12 | 8.80 | 7.68 | 7.92 | –
27 | COc1c(C(=O)N[C@H]2CCN(C3CCCCC3)C2)cc(Br)c2ccccc12 | 9.10 | 7.60 | – | –
28 | COc1c(C(=O)NC2CCN(Cc3ccccc3)CC2)cc(Br)c2ccccc12 | 8.96 | – | – | 7.46
29 | COc1c(C(=O)NC[C@@H]2CCCN2C2CCCCCC2)cc(Br)c2ccccc12 | 7.30 | – | – | –
30 | COc1c(C(=O)NC[C@@H]2CCCN2C2[C@H]3C[C@@H]4C[C@@H](C[C@H]2C4)C3)cc(Br)c2ccccc12 (stereo partly drawn) | 7.17 | 6.85 | – | –
31 | COc1cc(I)cc(C(=O)NC2CC3CCCC(C2)N3Cc2ccccc2)c1OC (stereo not drawn) | 10.40 | 6.38 | 10.30 | –
32 | COc1c(C(=O)N[C@H]2CCN(Cc3ccccc3)C2)cc(Br)c2ccccc12 | 9.00 | 7.38 | 8.01 | –
33 | COc1c(C(=O)N[C@H]2CCN(C3CCCCCC3)C2)cc(Br)c2ccccc12 | 9.70 | – | 8.74 | –
34 | COc1c(C(=O)N[C@@H]2CCN(C3CCCCC3)C2)cc(Br)c2ccccc12 | 8.24 | 8.01 | 7.13 | –
35 | COc1c(C(=O)N[C@@H]2CCN(C3C4CCCC3CCC4)C2)cc(Br)c2ccccc12 (stereo partly drawn) | 7.88 | 6.55 | 7.12 | –
